Source: patent US5631275A, “Substituted benzenesulfonylureas and -thioureas, preparation processes and possible uses of pharmaceutical preparations based on these compounds” (Hoechst Aktiengesellschaft, priority 1993, dated 1997)

Experiments:
[1] = system: papillary muscle of the guineapig; assay: Action potential duration on the papillary muscle of the guineapig; type: cell-based; details: test substance 2.2×10^-5 mol per liter, 30 minutes after the addition, control without test substance <40; for APD95 -HOE 234: action potential shortened by 1 μM rilmakalim (Hoe 234); for APD95 -DEO: action potential shortened by 2-deoxyglucose (DEO)
Description: ATP deficiency states such as are observed during ischemia in the cardiac muscle cell lead to a shortening of the duration of action potential. They are one of the causes of so-called reentry arrhythmias, which can cause sudden cardiac death. Opening of ATP-sensitive K channels by the reduction in ATP is a cause of this.
A standard microelectrode technique is used for measurement of the action potential. For this, guineapigs of both sexes are sacrificed by a blow to the head, the hearts are removed and the papillary muscles are separated out and suspended in an organ bath. The organ bath is flushed with Ringer solution (0.9% NaCl, 0.048% KCl, 0.024% CaCl2, 0.02% NaHCO3 and 0.1% glucose) and gassed with a mixture of 95% oxygen and 5% carbon dioxide at a temperature of 36° C. The muscle is stimulated via an electrode with rectangular pulses of 1 V and 1 ms duration and a frequency of 2 Hz. The action potential is conducted and recorded through a glass microelectrode, which is punctured intracellularly and filled with […] solution. The substances to be tested were added to the Ringer solution in a concentration of 2.2×10^-5 mol per liter. The action potential is shown in amplified form on an oscilloscope using a Hugo Sachs amplifier. The duration of the action potential is determined at a repolarization degree of 95% (APD95). Shortenings in action potential are caused either by addition of a 1 μM strength solution of the potassium channel opener rilmakalim (Hoe 234) [W. Linz, E. Klaus, U. Albus, R. H. A. Becker, D. Mania, H. C. Englert, B. A. Scholkens Arzneimittelforschung/Drug Research, Volume 42 (II), 1992, pages 1180-1185] or by addition of 2-deoxyglucose (DEO). ATP deficiency states are caused in experimental physiology by 2-deoxyglucose by blockade of glucose metabolism. The action potential-shortening effect of these substances was prevented or reduced by the simultaneous dose of the test substances. The test substances were added to the bath solution as stock solutions in propanediol. The values stated relate to measurements 30 minutes after the addition. The APD95 in the presence of DEO or HOE 234 and in the absence of the test substance serves as a control.

[2] = system: RINm5F cells; assay: Membrane potential on isolated β cells (RINm5F cells, whole cell patch clamp); type: cell-based; details: 10^-5 mol per liter, diazoxide (100 μmol) in bath, 34°±1° C., n = 6
Experimental: The action mechanism of hypoglycemic sulfonylureas is clarified in rough outlines. The β cells of the pancreas are the target organ, where increased secretion of the hypoglycemic hormone insulin occurs. The release of insulin is controlled by the cell membrane potential. Glihenclamide causes depolarization of the cell membrane, which promotes insulin release via an increased in-flow of calcium ions. The extent of this depolarization of the cell membrane ΔU was determined on RINm5F cells, a pancreas tumor cell line, for some of the compounds according to the invention. The action strength of a compound in this model predicts the extent of the hypoglycemic potential of this compound.
RINm5F cells were cultured at 37° C. in RPMI 1640 culture medium (flow), to which 11 mmol of glucose, 10% (volume/volume) of fetal calf serum, 2 mmol of glutamine and 50 μg/ml of gentamycin were added. For the studies, the cells were isolated by incubation (about 3 minutes) in a Ca^2+ -free medium containing 0.25% of trypsin and stored on ice.
Isolated RINm5F cells were introduced into a Plexiglas chamber on an inverse microscope fitted with a differential interference contrast lens. […] The cell potential was recorded in this whole cell configuration with the aid of a patch clamp amplifier (L/M EPC 7) and was measured by applying a potential ramp to the whole cell current. […]

SMILES | APD95 -HOE 234 [1] [ms] | APD95 -DEO [1] [ms] | ΔU (depolarization of the cell membrane) [2] [mV]
CCC1=C(C)CN(C(=O)NCCc2ccc(OC)c(S(=O)(=O)NC(=O)NC)c2)C1=O [Example 2, 1-{2-Methoxy-5-[2-(3-ethyl-4-methyl-2-oxo-3-pyrrolinyl-1-carboxamido)-ethyl]-phenylsulfonyl-}3-methylurea] | 125 | 110 | 12
CCC1=C(C)CN(C(=O)NCCc2ccc(OC)c(S(=O)(=O)NC(=S)NC)c2)C1=O [Example 1, 1-{2-Methoxy-5-[2-(3-ethyl-4-methyl-2-oxo-3-pyrrolinyl-1-carboxamido)-ethyl]-phenylsulfonyl-}3-methylthiourea] | 119 ± 16 | 60 ± 22 | 2
